Patent publication US7989479B2, “Use of a p38 kinase inhibitor for treating psychiatric disorders” (GlaxoSmithKline LLC, priority 2006, dated 2011)

Assays:
[1] = system: LPS induced elevations in TNF-a, IL-6, IL-10 and ACTH levels; experiment: LPS induced elevations of cytokines and HPA-axis markers in blood (biomarker analysis, satellite group); assay type: in vivo; conditions: rats; 20 mg/kg p.o. 1 hour before LPS (125 ug/kg i.p.); blood samples
From the text: (§1) Administration of lipopolysaccharide (LPS) to rats is known to produce not only robust measures of sickness behaviour (reduced locomotor activity, reduced intake of both food and water, decreased body weight & decreased social interest) but also large elevations of peripheral pro-inflammatory cytokines and HPA-axis markers that can mimic some of the symptoms and underlying pathobiology observed in major depressive disorder (Dunn et al., (2005). Neurosci. Behav. Rev., 29, 891-909). Indeed the injection of cytokines into man produces such neuropsychiatric disturbances in non-major depressive disorder patients (Schiepers & Maes (2005). Prog. Neuro-psychopharmacol. & Biol. Psych., 29, 201-217).
(§2) 6-(5-Cyclopropylcarbamoyl-3-fluoro-2-methyl-phenyl)-N-(2,2-dimethylpropyl)-nicotinamide was administered (p.o.) 1 hour before the administration of LPS (125 ug/kg i.p.) and then behavioural assessments were performed 2 hours thereafter. A satelite group of animals were treated in the same way and blood samples taken for biomarker analysis.

[2] = system: LPS induced sickness behaviour; experiment: LPS induced sickness behaviour in rats; assay type: in vivo; conditions: 20 mg/kg p.o. 1 hour before LPS (125 ug/kg i.p.), behavioural assessments 2 hours thereafter
From the text: as §1, §2

## Cc1c(F)cc(C(=O)NC2CC2)cc1-c1ccc(C(=O)NCC(C)(C)C)cn1 [6-(5-Cyclopropylcarbamoyl-3-fluoro-2-methyl-phenyl)-N-(2,2-dimethylpropyl)-nicotinamide]
[1]
  reduction in LPS induced elevation in ACTH level: > 80%
  reduction in LPS induced elevation in IL-6 level: > 80%
  reduction in LPS induced elevation in IL-10 level: > 80%
  reduction in LPS induced elevation in TNF-a level: > 80%
[2]
  reversal of LPS induced sickness behaviour: significantly reversed
